# Laboratory results reported in article PMC10692375 (Acta Pharmaceutica Sinica. B, 2023).
# System: 22Rv1 xenografts
# Test: 22Rv1 xenograft model
# Type: in vivo, mice
# Settings: DD1-Br 0.1 mg/kg i.p., ENZ 10 mg/kg p.o., alone or combined, 5 times a week
structure (smiles),measurement,value
"CNC(=O)c1ccc(N2C(=S)N(c3ccc(C#N)c(C(F)(F)F)c3)C(=O)C2(C)C)cc1F [ENZ, enzalutamide]",tumor growth,did not show significant effect
